Where two headings read alike, the source gives them in different places.
Legend:
Wistar male rats = assay: Diuretic activity; format: in vivo; conditions: Rattus norvegicus, po, 25 mg/kg orally, urine taken for 6 hours
Protocol: Wistar male rats weighing 150 to 300 g were used after fasting for 18 hours. […] The test was performed using 3 groups per test compound, and each group consists of 3 animals. The urine was metered by a measuring cylinder and electrolytes (Na^+ and K^+) in the urine were analyzed by flame photometer (model […]: Hitachi Ltd.). Parameters in Table 3 are represented by relative value for control.

trachea = assay: Passive Schultz-Dale reaction (broncho-dilatory effect) on isolated tracheal strips; conditions: Cavia porcellus; 50% relaxation of antigen (EWA, 1 µg/ml)-contracted tracheal strips of passively sensitized guinea pigs
Protocol: Guinea pigs were passively sensitized as follows. Hartley male guinea pigs weighing 350 to 500 g were injected intraperitoneally with rabbit anti-egg albumin (EWA) serum prepared by the method of Koda et al. [Folia pharmacol., Japon 66, 237, (1970)]. After 24 hours, the guinea pigs were stunned and exsanguinated, and then trachea was excised. The zig-zag strips of the trachea were prepared by the method of Emmerson and Mackay [J. Pharm. Pharmacol., 31, 798, (1979)]. The strips were suspended in Krebs-Henseleit solution at 37°C under aeration of a mixed gas of 95% oxygen and 5% carbon dioxide, and incubated for one hour. Antigen (EWA) was then introduced in the solution (final concentration; 1 µg/ml), and the contraction was measured by isotonictransducer (TD-112s, made by Nihon Kohden K.K., Japan) and recorded on a recorder (Type 3066, made by Yokogawa-Hokushin Denki, K.K. Japan). After the contraction curves reached plateau the compounds were successively added in order to get cumulative concentration-relaxation curves. Concentration of 50% relaxation rate (IC50) was calculated from the regression line, which was obtained from cumulative concentration-relaxation curves.

male dd-mice = assay: Acute toxicity; format: in vivo; conditions: Minimum lethal dose, oral, mortality observed for seven days
Protocol: The compounds were orally administrated to male dd-mice weighing 20 ± 1 g. Minimum lethal dose (MLD) was determined by observing the mortality for seven days after the administration.

Hartley male guinea pigs = assay: Experimental asthma (collapse time after antigen aerosol); format: in vivo; conditions: 50 mg/kg orally, 1 hour before 1.5% EWA aerosol; n=3-10 mean±S.E.M.; control 254 ± 18
Protocol: Guinea pigs were passively sensitized as follows. Hartley male guinea pigs weighing 350 to 500 g were intraperitoneally injected with 1 ml of rabbit anti-egg alubmin (EWA) serum prepared by the method of Koda et al. [Folia pharmacol., Japon, 66, 237 (1970)]. The animals were treated with intraperitoneal injection of diphenhydramine (20 mg/kg) and propranolol (5 mg/kg), 30 minutes before administration of test compounds. 17 hours after the sensitization, the test compounds (50 mg/kg or 5 mg/kg) or saline (control) were orally administrated to sensitized animals. After one hour from the administration of the test compounds, the guinea pigs were placed in plastic observation box and were exposed to an aerosal antigen of 1.5% EWA.
The time until the onset of respiratory distress-like symptom [collapse time (second)] was measured as a result of experimental asthma.

male dd mice = assay: Inhibition of platelet activating factor (PAF)-induced mortality; format: in vivo; conditions: Mus musculus, minimum effective dose, oral, 1 hour before 40 µg/kg PAF i.v., mortality 2 hours after PAF, read-out: PAF-induced mortality MED
Protocol: The experiment was performed by a minor modification of method of Carlson et al. [Agents and Actions, 21, 379 (1987)]. Groups each consisting of 10 male dd mice (weighing 28 to 32 g) were used, and 100 mg/kg of test compound or a saline (control) was orally administrated. One hour after the administration of test compound, 40 µg/kg of PAF (manufactured by Avanti Polar Lipids Co., Ltd.) was intravenously administered. Two hours after PAF injection, the mortality rate of the animals was observed. […]

mice = assay: Scopolamine-induced amnesia, step through passive avoidance; format: in vivo; conditions: scopolamine 0.5 mg/kg i.p., mean ± S.E.M., controls 40.9±8.1 (Compound 41), 37.0±6.2 (Compound 51)
Protocol: Acquisition trial was performed in a manner similar to Experiment (f). Amnestic treatment was performed by intraperitoneal administration of scopolamine (0.5 mg/kg), 30 minutes prior to the acquisition trial. The test trial was performed 24 hours after the acquisition trial and its latency was determined as in Experiment (f).
Preparation of administrated test compound was performed in a manner similar to Experiment (f). Test compound and the saline were orally administered 60 minutes before the acquisition trial, respectively.

[1] = relative value for control (1.00), read-out: Na^+/K^+
[2] = relative value for control (100), read-out: Excretion of K^+
[3] = relative value for control (100), read-out: Excretion of Na^+
[4] = relative value for control (100), read-out: Urine volume

| SMILES | response vs control in vivo at 25 mg/kg (Wistar male rats; [1]) [%] | response vs control in vivo at 25 mg/kg (Wistar male rats; [2]) [%] | response vs control in vivo at 25 mg/kg (Wistar male rats; [3]) [%] | response vs control in vivo at 25 mg/kg (Wistar male rats; [4]) [%] | IC50 (trachea) [µM] | MLD (male dd-mice) [mg/kg] | Experimental asthma Collapse time (Hartley male guinea pigs) [s] | minimal effective dose (male dd mice) [mg/kg] | Latency of test trial (mice; 0.625 mg/kg orally 60 minutes before acquisition trial) [s] | Latency of test trial (mice; 2.5 mg/kg orally 60 minutes before acquisition trial) [s] | Latency of test trial (mice; 10 mg/kg orally 60 minutes before acquisition trial) [s] | Latency of test trial (mice; 40 mg/kg orally 60 minutes before acquisition trial) [s] |
| --- | --- | --- | --- | --- | --- | --- | --- | --- | --- | --- | --- | --- |
| CCCn1c(=O)n2c(-c3cccnc3)nnc2c2c1ncn2C [Compound 4, 6,9-Dihydro-9-methyl-6-n-propyl-3-(3-pyridyl)-5H-1,2,4-triazolo[3,4-i]purin-5-one] | 125 | 134 | 167 | 177 | 7.7 | 200 | 358 ± 65 | – | – | – | – | – |
| CCCn1c(=O)n2c(C)nnc2c2c1ncn2C [Compound 24, 6,9-Dihydro-3,9-dimethyl-6-n-propyl-5H-1,2,4-triazolo-[3,4-i]purin-5-one] | 123 | 168 | 148 | 160 | – | 300 | – | 100 | – | – | – | – |
| CCCn1c(=O)n2c(-c3ccccc3)nnc2c2[nH]cnc21 [Compound 30, 6,9-Dihydro-3-phenyl-6-n-propyl-5H-1,2,4-triazolo[3,4-i]purin-5-one] | 177 | 124 | 220 | 204 | 0.76 | 300 | – | 10 | – | – | – | – |
| CCCCn1c(=O)n2c(=O)[nH]nc2c2c1ncn2C [Compound 51, 6-n-Butyl-9-methyl-2,5,6,9-tetrahydro-3H-1,2,4-triazolo[3,4-i]purin-3,5-dione] | 100 | 152 | 152 | 200 | – | >300 | – | – | 37.0 ± 11.2 | 69.5 ± 16.6 | 139.9 ± 45.1 | 166.3 ± 49.9 |
| CCCn1c(=O)n2c(-c3cccc(Cl)c3)nnc2c2c1ncn2C [Compound 11, 3-(3-Chlorophenyl)-6,9-dihydro-9-methyl-6-n-propyl-5H-1,2,4-triazolo[3,4-i]purin-5-one] | 226 | 134 | 302 | 255 | > 40 | >300 | – | 100 | – | – | – | – |
| CCCn1c(=O)n2c(-c3ccccc3Cl)nnc2c2c1ncn2C [Compound 10, 3-(2-Chlorophenyl)-6,9-dihydro-9-methyl-6-n-propyl-5H-1,2,4-triazolo[3,4-i]purin-5-one] | 124 | 109 | 134 | 162 | 18 | 300 | – | – | – | – | – | – |
| CCCn1c(=O)n2c(-c3ccncc3)nnc2c2c1ncn2C [Compound 3, 6,9-Dihydro-9-methyl-6-n-propyl-3-(4-pyridyl)-5H-1,2,4-triazolo[3,4-i]purin-5-one] | 109 | 196 | 224 | 274 | 0.032 | 100 | 422 ± 130 | – | – | – | – | – |
| CCCn1c(=O)n2c(-c3ccc(C)cc3)nnc2c2c1ncn2C [Compound 14, 6,9-Dihydro-9-methyl-3-(4-methylphenyl)-6-n-propyl-5H-1,2,4-triazolo[3,4-i]purin-5-one] | – | – | – | – | 45 | >300 | – | – | – | – | – | – |
| CCCn1cnc2c1c1n[nH]c(=O)n1c(=O)n2CCC [Compound 44, 6,9-Di-n-propyl-2,5,6,9-tetrahydro-3H-1,2,4-triazolo[3,4-i]purin-3,5-dione] | 111 | 128 | 142 | 191 | 39.6 | >300 | – | – | – | – | – | – |
| CCCn1c(=O)n2c(-c3ccco3)nnc2c2c1ncn2C [Compound 5, 6,9-Dihydro-3-(2-furyl)-9-methyl-6-n-propyl-5H-1,2,4-triazolo[3,4-i]purin-5-one] | – | – | – | – | 0.7 | >300 | – | 100 | – | – | – | – |
| CCCn1c(=O)n2c(-c3cccc(OC)c3)nnc2c2c1ncn2C [Compound 8, 6,9-Dihydro-3-(3-methoxyphenyl)-9-methyl-6-n-propyl-5H-1,2,4-triazolo[3,4-i]purin-5-one] | 144 | 122 | 175 | 170 | 5.6 | >300 | – | – | – | – | – | – |
| CCCn1c(=O)n2c(-c3ccoc3C)nnc2c2c1ncn2C [Compound 6, 6,9-Dihydro-9-methyl-3-(2-methyl-3-furyl)-6-n-propyl-5H-1,2,4-triazolo[3,4-i]purin-5-one] | 164 | 146 | 240 | 223 | – | 200 | – | 100 | – | – | – | – |
| Cn1cnc2c1c1nnc(-c3ccccc3)n1c(=O)n2-c1ccccc1 [Compound 29, 6,9-Dihydro-3,6-diphenyl-9-methyl-5H-1,2,4-triazolo[3,4-i]-purin-5-one] | 141 | 110 | 155 | 170 | – | >300 | – | – | – | – | – | – |
| CCCn1c(=O)n2c(-c3ccc(OC)cc3)nnc2c2c1ncn2C [Compound 9, 6,9-Dihydro-3-(4-methoxyphenyl)-9-methyl-6-n-propyl-5H-1,2,4-triazolo[3,4-i]purin-5-one] | 157 | 139 | 219 | 253 | 7.8 | >300 | – | – | – | – | – | – |
| CCCn1c(=O)n2c(-c3cccs3)nnc2c2c1ncn2C [Compound 2, 6,9-Dihydro-9-methyl-6-n-propyl-3-(2-thienyl)-5H-1,2,4-triazolo[3,4-i]purin-5-one] | – | – | – | – | 0.4 | 300 | – | – | – | – | – | – |
| CCCn1c(=O)n2c(-c3ccccc3)nnc2c2c1ncn2C [Compound 1, 6,9-Dihydro-9-methyl-3-phenyl-6-n-propyl-5H-1,2,4-triazolo-[3,4-i]purin-5-one] | 318 | 87 | 226 | 255 | 4.1 | 100 | – | – | – | – | – | – |

From patent publication EP0417790B1, “S-triazolo[3,4-i]purine derivatives” (Kyowa Hakko Kogyo Co., Ltd., priority 1989, dated 1991)
